Source: ChEMBL document CHEMBL5143584, “A dual aurora and lim kinase inhibitor reduces glioblastoma proliferation and invasion” (Bioorg Med Chem Lett, 2022)
The source made the active and inactive calls. No cut-off for these calls is given here.

Tests used:
GBM [1] = assay: Antiproliferative activity against fluorescently labelled human GBM cells are co-cultured with mature brain organoids differentiated from iPSCs assessed as reduction in total number of GBM cells incubated for 10 days by fluorescent confocal microscopy; format: functional, cell-based; conditions: time 10.0 day
[2] = Toxicity in human mature brain organoids differentiated from iPSCs assessed as decrease in organoid volume and surface area incubated for 10 days; format: cell-based; conditions: 240 h, time 10 day
GBM [3] = assay: Anti-invasion activity against fluorescently labelled human GBM cells are co-cultured with mature brain organoids differentiated from iPSCs assessed as reduction in number of invading GBM cells incubated for 10 days by fluorescent confocal microscopy; format: functional, cell-based; conditions: time 10.0 day
[4] = Antiproliferative activity against human GBM22 cells assessed as inhibition of cell proliferation incubated for 48 hrs by live/dead fluorescence imaging-based assay; format: functional; conditions: GBM
Aurora kinase A = target: T1, Aurora kinase A (Homo sapiens, UniProt O14965); assay: Inhibition of AURKA (unknown origin)
T1 sequence (O14965 whole entry): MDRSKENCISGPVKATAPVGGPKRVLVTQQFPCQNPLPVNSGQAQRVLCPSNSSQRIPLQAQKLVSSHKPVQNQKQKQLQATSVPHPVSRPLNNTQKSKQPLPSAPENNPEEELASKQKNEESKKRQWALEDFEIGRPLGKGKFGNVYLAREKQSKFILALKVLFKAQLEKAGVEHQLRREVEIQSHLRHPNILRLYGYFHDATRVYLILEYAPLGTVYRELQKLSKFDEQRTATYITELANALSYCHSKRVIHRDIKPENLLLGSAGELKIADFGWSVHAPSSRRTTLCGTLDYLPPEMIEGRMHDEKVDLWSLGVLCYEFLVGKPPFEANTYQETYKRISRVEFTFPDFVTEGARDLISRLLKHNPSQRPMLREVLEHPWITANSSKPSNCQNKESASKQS

[5] = Antiproliferative activity against human GBM22 cells assessed as inhibition of cell proliferation incubated for 24 hrs by live/dead fluorescence imaging-based assay; format: functional; conditions: GBM
GBM [6] = assay: Antiproliferative activity against fluorescently labelled human GBM cells are co-cultured with mature brain organoids differentiated from iPSCs assessed as reduction in total number of GBM cells at 500 nM incubated for 10 days by fluorescent confocal microscopy; format: functional, cell-based; conditions: time 10.0 day
[7] = Toxicity in human mature brain organoids differentiated from iPSCs assessed as decrease in organoid volume and surface area at 500 nM incubated for 10 days; format: cell-based; conditions: 240 h, 0.5 µM, time 10 day
[8] = Antiproliferative activity against human GBM22 cells assessed as inhibition of cell proliferation by CellTiter-Glo ATP content assay; format: functional, cell-based; conditions: GBM
GBM [9] = assay: Anti-invasion activity against fluorescently labelled human GBM cells are co-cultured with mature brain organoids differentiated from iPSCs assessed as reduction in number of invading GBM cells at 500 nM incubated for 10 days by fluorescent confocal microscopy; format: functional, cell-based; conditions: time 10.0 day
Aurora kinase B = Aurora kinase B (Homo sapiens, UniProt Q96GD4); assay: Inhibition of AURKB (unknown origin)
GBM [10] = assay: Antiproliferative activity against fluorescently labelled human GBM cells are co-cultured with mature brain organoids differentiated from iPSCs assessed as reduction in total number of GBM cells by FACS; format: functional, cell-based
LIM domain kinase 1 = LIM domain kinase 1 (Homo sapiens, UniProt P53667); assay: Inhibition of LIMK1 (unknown origin)
LIM domain kinase 1, sequence (P53667 whole entry, the tested form may be a part): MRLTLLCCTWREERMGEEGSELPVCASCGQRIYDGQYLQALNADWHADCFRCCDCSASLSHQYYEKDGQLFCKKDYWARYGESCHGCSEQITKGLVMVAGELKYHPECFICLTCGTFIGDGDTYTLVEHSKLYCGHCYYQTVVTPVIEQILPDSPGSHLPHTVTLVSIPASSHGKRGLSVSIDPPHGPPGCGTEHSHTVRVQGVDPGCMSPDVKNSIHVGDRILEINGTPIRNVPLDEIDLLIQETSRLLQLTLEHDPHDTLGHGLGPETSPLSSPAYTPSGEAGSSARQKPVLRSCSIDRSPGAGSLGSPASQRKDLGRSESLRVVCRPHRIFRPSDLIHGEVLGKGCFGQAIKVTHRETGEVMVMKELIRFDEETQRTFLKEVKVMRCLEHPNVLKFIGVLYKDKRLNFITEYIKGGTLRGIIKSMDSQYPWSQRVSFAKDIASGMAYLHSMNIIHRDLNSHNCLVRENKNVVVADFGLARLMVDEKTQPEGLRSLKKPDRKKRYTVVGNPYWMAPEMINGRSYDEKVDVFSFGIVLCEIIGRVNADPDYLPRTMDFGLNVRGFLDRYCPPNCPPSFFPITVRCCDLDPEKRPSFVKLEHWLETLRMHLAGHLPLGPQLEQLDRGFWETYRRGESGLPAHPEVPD

Aurora kinase B, sequence (Q96GD4 whole entry): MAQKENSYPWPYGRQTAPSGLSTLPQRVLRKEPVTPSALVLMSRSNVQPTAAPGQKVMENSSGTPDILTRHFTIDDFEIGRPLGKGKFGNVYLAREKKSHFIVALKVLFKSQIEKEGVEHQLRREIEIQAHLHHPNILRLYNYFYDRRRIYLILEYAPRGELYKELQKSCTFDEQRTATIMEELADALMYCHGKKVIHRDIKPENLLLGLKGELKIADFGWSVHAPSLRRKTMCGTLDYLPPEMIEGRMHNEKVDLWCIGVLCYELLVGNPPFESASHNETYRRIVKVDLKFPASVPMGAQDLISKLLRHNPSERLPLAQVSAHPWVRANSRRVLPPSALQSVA

Row | IC50 (Aurora kinase A) | IC50 (Aurora kinase B) | IC50 (LIM domain kinase 1) | SMILES | Activity (GBM [1]) | Activity [2] | Activity (GBM [3]) | IC50 [4] | IC50 [5] | Activity (GBM [6]) | Activity [7] | IC50 [8] | Activity (GBM [9]) | Activity (GBM [10])
1 | – | – | – | Cc1csc(-c2nnc(Nc3ccc(Oc4ncccc4-c4ccnc(N)n4)cc3)c3ccccc23)c1 [AMG-900] | Active | Non-Toxic | – | – | – | – | – | – | – | –
2 | – | – | – | CC(C)C(=O)Nc1ncc(-c2cc(C(F)F)nn2-c2c(Cl)cccc2Cl)s1 | Active | Non-Toxic | Active | – | – | – | – | – | – | –
3 | 72 nM | 17 nM | 137 nM | CC(C)n1cc(Nc2ncc3ccc(=O)n(C(C)C)c3n2)cn1 | – | – | – | 1530 nM | 2460 nM | Active | Toxic | 5340 nM | Active | Active
